Test results from patent publication US20230017045A1, “PYRIDINE AND PYRIMIDINE CARBOXYLATE HERBICIDES AND METHODS OF USE THEREOF” (Dow AgroSciences LLC, priority 2017, published 2023).

What follows are molecules tested on test plant species (assay: Post-emergent herbicidal activity test (greenhouse, foliar spray, visual growth reduction)). Conditions: post-emergence, 336 h, ALOMY: blackgrass (Alopecurus myosuroides), 140 g ai/ha, 14 days after application, read-out: Visual Growth Reduction (%) 14 Days After Application, ALOMY.
Type: in vivo
Outline: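 Plants grown in greenhouse (15 h photoperiod, 23-29° C day/22-28° C night) to first or second true leaf stage were sprayed overhead with compound in acetone/water/isopropanol/DMSO/crop oil/X-77 carrier at 187 L/ha. Injury was scored visually after 14 d on a 0-100% scale versus solvent-blank and untreated controls.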
Molecule `COc1c(Cl)ccc(-c2cc(Cl)c(Cl)c(C(=O)O)n2)c1F` [F75, 3,4-Dichloro-6-(4-chloro-2-fluoro-3-methoxyphenyl) picolinic acid] has a pest or weed control at 140 g/ha of 0 to 29%.
Work on `O=C(O)c1nc(-c2ccc(C(F)(F)F)cc2)c(Cl)cc1Cl` [F96, 3,5-Dichloro-6-(4-(trifluoromethyl)phenyl)picolinic acid] yielded a pest or weed control at 140 g/ha of 0 to 29%.

Same assay, conditions: post-emergence, 336 h, AMARE: redroot pigweed (Amaranthus retroflexus), 140 g ai/ha, 14 days after application, read-out: Visual Growth Reduction (%) 14 Days After Application, AMARE
With `COc1c(Cl)ccc(-c2cc(Cl)c(Cl)c(C(=O)O)n2)c1F` [F75, 3,4-Dichloro-6-(4-chloro-2-fluoro-3-methoxyphenyl) picolinic acid] the pest or weed control at 140 g/ha was 85 to 94%.
`O=C(O)c1nc(-c2ccc(C(F)(F)F)cc2)c(Cl)cc1Cl` [F96, 3,5-Dichloro-6-(4-(trifluoromethyl)phenyl)picolinic acid] was tested, and the pest or weed control at 140 g/ha was 30 to 44%.

Same assay, conditions: post-emergence, 336 h, AVEFA: wild oat (Avena fatua), 140 g ai/ha, 14 days after application, read-out: Visual Growth Reduction (%) 14 Days After Application, AVEFA
In the case of `COc1c(Cl)ccc(-c2cc(Cl)c(Cl)c(C(=O)O)n2)c1F` [F75, 3,4-Dichloro-6-(4-chloro-2-fluoro-3-methoxyphenyl) picolinic acid], the pest or weed control at 140 g/ha was 0 to 29%.
Work on `O=C(O)c1nc(-c2ccc(C(F)(F)F)cc2)c(Cl)cc1Cl` [F96, 3,5-Dichloro-6-(4-(trifluoromethyl)phenyl)picolinic acid] yielded a pest or weed control at 140 g/ha of 0 to 29%.

Same assay, conditions: post-emergence, 336 h, CHEAL: lambsquarters (Chenopodium album), 140 g ai/ha, 14 days after application, read-out: Visual Growth Reduction (%) 14 Days After Application, CHEAL
`COc1c(Cl)ccc(-c2cc(Cl)c(Cl)c(C(=O)O)n2)c1F` [F75, 3,4-Dichloro-6-(4-chloro-2-fluoro-3-methoxyphenyl) picolinic acid] was tested, and the pest or weed control at 140 g/ha was 95 to 100%.
For `O=C(O)c1nc(-c2ccc(C(F)(F)F)cc2)c(Cl)cc1Cl` [F96, 3,5-Dichloro-6-(4-(trifluoromethyl)phenyl)picolinic acid], the pest or weed control at 140 g/ha was 60 to 74%.

Same assay, conditions: post-emergence, 336 h, CIRAR: canada thistle (Cirsium arvense), 140 g ai/ha, 14 days after application, read-out: Visual Growth Reduction (%) 14 Days After Application, CIRAR
`COc1c(Cl)ccc(-c2cc(Cl)c(Cl)c(C(=O)O)n2)c1F` [F75, 3,4-Dichloro-6-(4-chloro-2-fluoro-3-methoxyphenyl) picolinic acid] was tested, and the pest or weed control at 140 g/ha was 30 to 44%.
With `O=C(O)c1nc(-c2ccc(C(F)(F)F)cc2)c(Cl)cc1Cl` [F96, 3,5-Dichloro-6-(4-(trifluoromethyl)phenyl)picolinic acid] the pest or weed control at 140 g/ha was 30 to 44%.

Same assay, conditions: post-emergence, 336 h, CYPES: yellow nutsedge (Cyperus esculentus), 140 g ai/ha, 14 days after application, read-out: Visual Growth Reduction (%) 14 Days After Application, CYPES
With `COc1c(Cl)ccc(-c2cc(Cl)c(Cl)c(C(=O)O)n2)c1F` [F75, 3,4-Dichloro-6-(4-chloro-2-fluoro-3-methoxyphenyl) picolinic acid] the pest or weed control at 140 g/ha was 0 to 29%.
In the case of `O=C(O)c1nc(-c2ccc(C(F)(F)F)cc2)c(Cl)cc1Cl` [F96, 3,5-Dichloro-6-(4-(trifluoromethyl)phenyl)picolinic acid], the pest or weed control at 140 g/ha was 0 to 29%.

Same assay, conditions: post-emergence, 336 h, DIGSA: crabgrass (Digitaria sanguinalis), 140 g ai/ha, 14 days after application, read-out: Visual Growth Reduction (%) 14 Days After Application, DIGSA
In the case of `COc1c(Cl)ccc(-c2cc(Cl)c(Cl)c(C(=O)O)n2)c1F` [F75, 3,4-Dichloro-6-(4-chloro-2-fluoro-3-methoxyphenyl) picolinic acid], the pest or weed control at 140 g/ha was 0 to 29%.
`O=C(O)c1nc(-c2ccc(C(F)(F)F)cc2)c(Cl)cc1Cl` [F96, 3,5-Dichloro-6-(4-(trifluoromethyl)phenyl)picolinic acid] was tested, and the pest or weed control at 140 g/ha was 0 to 29%.

Same assay, conditions: post-emergence, 336 h, ECHCG: barnyardgrass (Echinochloa crus-galli), 140 g ai/ha, 14 days after application, read-out: Visual Growth Reduction (%) 14 Days After Application, ECHCG
For `COc1c(Cl)ccc(-c2cc(Cl)c(Cl)c(C(=O)O)n2)c1F` [F75, 3,4-Dichloro-6-(4-chloro-2-fluoro-3-methoxyphenyl) picolinic acid], the pest or weed control at 140 g/ha was 95 to 100%.
Molecule `O=C(O)c1nc(-c2ccc(C(F)(F)F)cc2)c(Cl)cc1Cl` [F96, 3,5-Dichloro-6-(4-(trifluoromethyl)phenyl)picolinic acid] has a pest or weed control at 140 g/ha of 0 to 29%.

Same assay, conditions: post-emergence, 336 h, IPOHE: ivy-leaf morning glory (Ipomoea hederacea), 140 g ai/ha, 14 days after application, read-out: Visual Growth Reduction (%) 14 Days After Application, IPOHE
In the case of `COc1c(Cl)ccc(-c2cc(Cl)c(Cl)c(C(=O)O)n2)c1F` [F75, 3,4-Dichloro-6-(4-chloro-2-fluoro-3-methoxyphenyl) picolinic acid], the pest or weed control at 140 g/ha was 30 to 44%.
For `O=C(O)c1nc(-c2ccc(C(F)(F)F)cc2)c(Cl)cc1Cl` [F96, 3,5-Dichloro-6-(4-(trifluoromethyl)phenyl)picolinic acid], the pest or weed control at 140 g/ha was 75 to 84%.

Same assay, conditions: post-emergence, 336 h, KCHSC: kochia (Bassia scoparia), 140 g ai/ha, 14 days after application, read-out: Visual Growth Reduction (%) 14 Days After Application, KCHSC
Molecule `O=C(O)c1nc(-c2ccc(C(F)(F)F)cc2)c(Cl)cc1Cl` [F96, 3,5-Dichloro-6-(4-(trifluoromethyl)phenyl)picolinic acid] has a pest or weed control at 140 g/ha of 0 to 29%.

Same assay, conditions: post-emergence, 336 h, ORYSA: rice (Oryza sativa), 140 g ai/ha, 14 days after application, read-out: Visual Growth Reduction (%) 14 Days After Application, ORYSA
In the case of `COc1c(Cl)ccc(-c2cc(Cl)c(Cl)c(C(=O)O)n2)c1F` [F75, 3,4-Dichloro-6-(4-chloro-2-fluoro-3-methoxyphenyl) picolinic acid], the pest or weed control at 140 g/ha was 0 to 29%.
In the case of `O=C(O)c1nc(-c2ccc(C(F)(F)F)cc2)c(Cl)cc1Cl` [F96, 3,5-Dichloro-6-(4-(trifluoromethyl)phenyl)picolinic acid], the pest or weed control at 140 g/ha was 0 to 29%.

Same assay, conditions: post-emergence, 336 h, SETFA: giant foxtail (Setaria faberi), 140 g ai/ha, 14 days after application, read-out: Visual Growth Reduction (%) 14 Days After Application, SETFA
`COc1c(Cl)ccc(-c2cc(Cl)c(Cl)c(C(=O)O)n2)c1F` [F75, 3,4-Dichloro-6-(4-chloro-2-fluoro-3-methoxyphenyl) picolinic acid] gave a pest or weed control at 140 g/ha of 45 to 59%.
Molecule `O=C(O)c1nc(-c2ccc(C(F)(F)F)cc2)c(Cl)cc1Cl` [F96, 3,5-Dichloro-6-(4-(trifluoromethyl)phenyl)picolinic acid] has a pest or weed control at 140 g/ha of 45 to 59%.

Same assay, conditions: post-emergence, 336 h, SORVU: grain sorghum (Sorghum vulgare), 140 g ai/ha, 14 days after application, read-out: Visual Growth Reduction (%) 14 Days After Application, SORVU
For `COc1c(Cl)ccc(-c2cc(Cl)c(Cl)c(C(=O)O)n2)c1F` [F75, 3,4-Dichloro-6-(4-chloro-2-fluoro-3-methoxyphenyl) picolinic acid], the pest or weed control at 140 g/ha was 0 to 29%.
`O=C(O)c1nc(-c2ccc(C(F)(F)F)cc2)c(Cl)cc1Cl` [F96, 3,5-Dichloro-6-(4-(trifluoromethyl)phenyl)picolinic acid] gave a pest or weed control at 140 g/ha of 60 to 74%.

Same assay, conditions: post-emergence, 336 h, STEME: common chickweed (Stellaria media), 140 g ai/ha, 14 days after application, read-out: Visual Growth Reduction (%) 14 Days After Application, STEME
`COc1c(Cl)ccc(-c2cc(Cl)c(Cl)c(C(=O)O)n2)c1F` [F75, 3,4-Dichloro-6-(4-chloro-2-fluoro-3-methoxyphenyl) picolinic acid] was tested, and the pest or weed control at 140 g/ha was 30 to 44%.
Work on `O=C(O)c1nc(-c2ccc(C(F)(F)F)cc2)c(Cl)cc1Cl` [F96, 3,5-Dichloro-6-(4-(trifluoromethyl)phenyl)picolinic acid] yielded a pest or weed control at 140 g/ha of 0 to 29%.

Same assay, conditions: post-emergence, 336 h, TRZAS: wheat, spring (Triticum aestivum), 140 g ai/ha, 14 days after application, read-out: Visual Growth Reduction (%) 14 Days After Application, TRZAS
Molecule `COc1c(Cl)ccc(-c2cc(Cl)c(Cl)c(C(=O)O)n2)c1F` [F75, 3,4-Dichloro-6-(4-chloro-2-fluoro-3-methoxyphenyl) picolinic acid] has a pest or weed control at 140 g/ha of 0 to 29%.
`O=C(O)c1nc(-c2ccc(C(F)(F)F)cc2)c(Cl)cc1Cl` [F96, 3,5-Dichloro-6-(4-(trifluoromethyl)phenyl)picolinic acid] was tested, and the pest or weed control at 140 g/ha was 0 to 29%.
